ChEMBL document CHEMBL1133308, “A novel inhibitor of human telomerase derived from 10H-indolo[3,2-b]quinoline” (Bioorg Med Chem Lett, 2000)

Legend:
[1] = Compound was evaluated for cytotoxicity against human ovarian cancer cell SKOV-3; assay type: functional, cell-based; details: Cancer cell lines
[2] = Compound was evaluated for cytotoxicity against human ovarian cancer cell A2780; assay type: functional, cell-based; details: Cancer cell lines
[3] = Compound was evaluated for cytotoxicity against human ovarian cancer cell CHI; assay type: functional, cell-based; details: Cancer cell lines
[4] = molecular target: Telomerase reverse transcriptase (Homo sapiens, UniProt O14746); experiment: Inhibitory activity against human ovarian cancer cell (A2780 cells) Telomerase; assay type: cell-based
[5] = Compound was evaluated for cytotoxicity against human ovarian cancer cell A2780R.; assay type: functional, cell-based; details: Cancer cell lines
[6] = Compound was evaluated for cytotoxicity against human ovarian cancer cell CHI R; assay type: functional, cell-based; details: Cancer cell lines

Telomerase reverse transcriptase, sequence (O14746 whole entry): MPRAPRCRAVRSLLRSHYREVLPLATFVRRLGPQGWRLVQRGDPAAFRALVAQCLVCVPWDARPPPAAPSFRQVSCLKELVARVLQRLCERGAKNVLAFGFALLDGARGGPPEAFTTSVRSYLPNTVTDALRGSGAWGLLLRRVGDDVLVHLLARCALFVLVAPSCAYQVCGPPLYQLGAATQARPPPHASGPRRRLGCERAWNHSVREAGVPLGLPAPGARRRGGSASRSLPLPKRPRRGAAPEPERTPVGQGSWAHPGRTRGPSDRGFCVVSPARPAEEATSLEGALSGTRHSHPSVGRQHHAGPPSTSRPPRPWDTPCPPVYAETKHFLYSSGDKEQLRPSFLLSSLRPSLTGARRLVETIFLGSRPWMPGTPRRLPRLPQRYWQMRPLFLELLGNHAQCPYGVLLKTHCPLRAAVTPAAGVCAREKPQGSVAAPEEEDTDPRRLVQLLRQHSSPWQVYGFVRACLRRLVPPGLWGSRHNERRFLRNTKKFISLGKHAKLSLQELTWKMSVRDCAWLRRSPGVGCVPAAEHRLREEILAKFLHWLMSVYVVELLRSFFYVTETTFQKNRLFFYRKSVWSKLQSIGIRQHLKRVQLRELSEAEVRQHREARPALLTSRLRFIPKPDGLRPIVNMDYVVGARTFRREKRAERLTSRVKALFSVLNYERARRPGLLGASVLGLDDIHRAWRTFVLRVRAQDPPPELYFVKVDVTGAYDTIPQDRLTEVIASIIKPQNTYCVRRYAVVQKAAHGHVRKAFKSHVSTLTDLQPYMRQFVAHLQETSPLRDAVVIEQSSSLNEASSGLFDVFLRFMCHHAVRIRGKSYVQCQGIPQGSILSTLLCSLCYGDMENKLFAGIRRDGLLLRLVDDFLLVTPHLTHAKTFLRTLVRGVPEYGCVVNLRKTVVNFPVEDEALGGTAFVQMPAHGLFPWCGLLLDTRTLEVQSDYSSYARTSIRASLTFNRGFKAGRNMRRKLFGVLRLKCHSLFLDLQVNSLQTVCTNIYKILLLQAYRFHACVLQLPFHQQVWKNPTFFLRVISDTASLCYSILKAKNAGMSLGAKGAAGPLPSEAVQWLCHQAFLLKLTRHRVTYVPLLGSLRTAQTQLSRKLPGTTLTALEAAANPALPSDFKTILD

SMILES | IC50 [1] [µM] | IC50 [2] [µM] | IC50 [3] [µM] | IC50 [4] [µM] | IC50 [5] [µM] | IC50 [6] [µM]
CCN(CC)CCOc1ccc2c(c1)OC1C(=O)c3ccccc3C(=O)C21 (stereo not given) | 3.6 | 0.15 | 0.18 | 7 | – | –
CN(C)CCc1ccc2nc3c4ccccc4n(CCN(C)C)c3cc2c1 | 6.3 | 12.5 | 8.4 | 16 | 10.5 | 12.5
c1ccc2nc3c(cc2c1)[nH]c1ccccc13 [QUINDOLINE] | 66 | 21.5 | 15.5 | – | 24.5 | 30
